Reference: US20170235917A1, “SYSTEMS AND METHODS FOR MONITORING AND CONTROLLING A CARD[…] OF A SUBJECT” (THE GENERAL HOSPITAL CORPORATION, priority 2014, published 2017)
Like-named read-outs stand apart in the source and are kept apart here.

Legend:
[1] = for 1/τ (inverse time constant of drug distribution and equilibration) / tD (delay): mean ± SD, five piglets
Method: Five neonatal Yorkshire Duroc piglets of 10+/−3 d of age weighting 2.4+/−0.6 kg were pre-anesthetized with ketamine (33 mg/kg) and atropine (0.05 mg/kg), intubated, and anesthetized using 1.5-3.0% isoflurane while mechanically ventilated. Core body temperature was kept at 38+/−0.5° C. BP, HR, arterial O2 saturation, end-tidal CO2, fraction of inspired O2, and pulmonary compliance were continuously monitored. HR beyond 250 bpm was captured using the PC-Vet wireless ECG system or direct counting. The animals received intravenous heparin (200 units/kg/h), physiologic saline (10 mL/kg/h), and 10 g/dL of dextrose-water to adjust serum glucose levels using Genie Plus syringe pumps validated for stability of infusion rate. Serum electrolytes, base excess (−6 to +6), pH (7.20-7.45), partial arterial O2 pressure (80-120 mmHg) and partial arterial CO2 pressure (35-45 mmHg), and arterial O2 saturation (90-100%) were maintained in the target ranges using sodium bicarbonate, potassium chloride, lactated Ringer's solution, and ventilatory changes, respectively. Both femoral veins and left femoral artery were cannulated for fluid and drug administration, and arterial BP measurements and blood sampling, respectively. […] The baseline measurements were recorded after a 15-min postsurgical stabilization period, followed by the escalation of dose, and a 15-min washout period after the discontinuation of the medication. […] To deduce the rate of change of the hemodynamic parameters, the data obtained were subdivided into baseline, low dose (0.25 mcg/kg/min), medium dose (0.5 and 0.75 mcg/kg/min) and high dose (1, 1.5 and 2 mcg/kg/min). BP and HR were collected in real time at a sampling rate of 0.2 Hz.

[2] = range across four pooled subject groups, cited from earlier work

CNC[C@H](O)c1ccc(O)c(O)c1 [epinephrine]
1/τ (inverse time constant of drug distribution and equilibration) ([1]; X = H (HR)): 4.1e−3 ± 4.5e−3 | tD (delay) ([1]; X = R (TPR)): 48.6 ± 17.6 s | 1/τ (inverse time constant of drug distribution and equilibration) ([1]; X = δV (SV)): 0.01 ± 0.02 | tD (delay) ([1]; X = δV (SV)): 29.1 ± 26.1 s | HR increase as share of its maximum response ([1]; after the first dose escalation (0.25 mcg/kg/min), averaged over five piglets): 55% | HR at which the response starts to saturate ([1]; doses of 1-2 mcg/kg/min, one particular piglet): around 400 bpm | MAP response ([1]; from the low-dose range, averaged over five piglets (FIG. 10)): persistently increases | DBP ([2]; epinephrine 020 ng/kg/min): 69-88 mmHg | HR ([2]; epinephrine 020 ng/kg/min): 64-69 bpm | MAP ([2]; epinephrine 020 ng/kg/min): 83-110 mmHg | SBP ([2]; epinephrine 020 ng/kg/min): 112-153 mmHg | SVI ([2]; epinephrine 020 ng/kg/min): 54-65 ml/m^2 | DBP ([2]; epinephrine 040 ng/kg/min): 66-83 mmHg | HR ([2]; epinephrine 040 ng/kg/min): 68-73 bpm | MAP ([2]; epinephrine 040 ng/kg/min): 82-106 mmHg | SBP ([2]; epinephrine 040 ng/kg/min): 114-153 mmHg | SVI ([2]; epinephrine 040 ng/kg/min): 55-68 ml/m^2 | DBP ([2]; epinephrine 080 ng/kg/min): 62-79 mmHg | HR ([2]; epinephrine 080 ng/kg/min): 71-76 bpm | MAP ([2]; epinephrine 080 ng/kg/min): 83-105 mmHg | SBP ([2]; epinephrine 080 ng/kg/min): 124-158 mmHg | SVI ([2]; epinephrine 080 ng/kg/min): 58-71 ml/m^2 | DBP ([2]; epinephrine 120 ng/kg/min): 61-79 mmHg | HR ([2]; epinephrine 120 ng/kg/min): 72-81 bpm | MAP ([2]; epinephrine 120 ng/kg/min): 84-109 mmHg | SBP ([2]; epinephrine 120 ng/kg/min): 132-168 mmHg | SVI ([2]; epinephrine 120 ng/kg/min): 59-74 ml/m^2 | DBP ([2]; epinephrine 160 ng/kg/min): 61-80 mmHg | HR ([2]; epinephrine 160 ng/kg/min): 75-79 bpm | MAP ([2]; epinephrine 160 ng/kg/min): 86-109 mmHg | SBP ([2]; epinephrine 160 ng/kg/min): 136-170 mmHg | SVI ([2]; epinephrine 160 ng/kg/min): 59-77 ml/m^2
